Test results as given in patent US20250230155A1 (Vanderbilt University, priority 2021, published 2025).

Target: T1, human mAChR M4 (Homo sapiens, UniProt P08173)
T1 construct: expressed in transfected cells
T1 sequence (P08173 1-479): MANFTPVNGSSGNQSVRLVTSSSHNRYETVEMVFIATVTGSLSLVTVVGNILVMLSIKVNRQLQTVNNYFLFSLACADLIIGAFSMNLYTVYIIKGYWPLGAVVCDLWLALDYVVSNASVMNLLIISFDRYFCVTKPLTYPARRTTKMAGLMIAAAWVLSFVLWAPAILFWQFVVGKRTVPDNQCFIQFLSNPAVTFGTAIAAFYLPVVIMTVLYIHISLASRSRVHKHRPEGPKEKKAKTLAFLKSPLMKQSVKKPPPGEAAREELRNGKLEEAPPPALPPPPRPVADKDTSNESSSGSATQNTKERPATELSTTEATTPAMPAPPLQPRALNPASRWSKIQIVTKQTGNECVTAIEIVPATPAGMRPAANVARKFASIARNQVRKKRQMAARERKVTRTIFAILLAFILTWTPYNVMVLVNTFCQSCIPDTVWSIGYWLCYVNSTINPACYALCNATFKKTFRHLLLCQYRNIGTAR
Experiment: mAChR M4 cell-based functional assay (calcium mobilization, CHO-K1 hM4-Gqi5 cells)
Details: for Emax at 30 µM: CHO-K1, % ACh maximum at 30 μM, human M4; for EC50: positive allosteric modulator activity, increase in the EC20 acetylcholine response, CHO-K1 hM4-Gqi5 cells, read-out: Human M4 EC50
Outline: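 Fluorescent calcium read-out (Fluo-4 AM, FDSS, 1 Hz) in hM4-Gqi5 CHO-K1 cells, 11-point 1:3 compound series. Agonism scored on compound addition, PAM activity as increase of the 144 s EC20 acetylcholine response, antagonism as decrease of the 230 s EC80 response; four-parameter logistic fits give EC50 and Emax.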

Row | SMILES | Emax at 30 µM | EC50
1 | Cc1cc(C(=O)NCc2cnc3ccccc3c2)cnc1N1CCc2ncccc2C1 [compound 140, 6-(7,8-dihydro-5H-1,6-naphthyridin-6-yl)-5-methyl-N-(3-quinolylmethyl)pyridine-3-carboxamide] | 62% | 1030 nM
2 | COc1cnc(Cl)c(-c2cnc3c(c2)CN(c2nnc(C#N)c(C)c2C)CC3)c1 [compound 52, 6-[3-(2-chloro-5-methoxy-3-pyridyl)-7,8-dihydro-5H-1,6-naphthyridin-6-yl]-4,5-dimethyl-pyridazine-3-carbonitrile] | 64% | 305 nM
3 | Cc1cc(C#N)cnc1N1CCc2ncc(N3CCOC(C)(C)C3)cc2C1 [Example 370, 6-(3-(2,2-dimethylmorpholino)-7,8-dihydro-1,6-naphthyridin-6(5H)-yl)-5-methylnicotinonitrile] | 82% | 81 nM
4 | Cc1cc(C#N)cnc1N1CCc2ncc(Nc3cccc(Cl)c3F)cc2C1 [compound 114, 6-[3-(3-chloro-2-fluoro-anilino)-7,8-dihydro-5H-1,6-naphthyridin-6-yl]-5-methyl-pyridine-3-carbonitrile] | 100% | 969 nM
5 | Cc1cc(C#N)cnc1N1CCc2ncc(-n3cccn3)cc2C1 [Example 344, 6-(3-(1H-pyrazol-1-yl)-7,8-dihydro-1,6-naphthyridin-6(5H)-yl)-5-methylnicotinonitrile] | 88% | 380 nM
6 | Cc1nc(Cl)c(C)c(N2CCc3ncc(Oc4ccccc4F)cc3C2)n1 [compound 204, 6-(6-chloro-2,5-dimethyl-pyrimidin-4-yl)-3-(2-fluorophenoxy)-7,8-dihydro-5H-1,6-naphthyridine] | 90% | 328 nM
7 | Cc1cc(C#N)nnc1N1CCc2ncc(CC(F)(F)F)cc2C1 [Example 422, 5-methyl-6-(3-(2,2,2-trifluoroethyl)-7,8-dihydro-1,6-naphthyridin-6(5H)-yl)pyridazine-3-carbonitrile] | 94% | 523 nM
8 | Cc1cc(C#N)nnc1N1CCc2ncc(Oc3cc(F)ccc3F)cc2C1 [Example 357, 6-(3-(2,5-difluorophenoxy)-7,8-dihydro-1,6-naphthyridin-6(5H)-yl)-5-methylpyridazine-3-carbonitrile] | 84% | 127 nM
9 | COc1ccc(CNc2cnc3c(c2)CN(c2ncc(C#N)cc2C)CC3)cc1F [Example 5] | 63% | 2400 nM
10 | Cc1c(C#N)nnc(N2CCc3ncc(-c4cnn(CCN5CCOCC5)c4)cc3C2)c1C [Example 325, 4,5-dimethyl-6-(3-(1-(2-morpholinoethyl)-1H-pyrazol-4-yl)-7,8-dihydro-1,6-naphthyridin-6(5H)-yl)pyridazine-3-carbonitrile] | 51% | 2950 nM
